For one data set, the system named is PXR. Also on record: method as in PMID 16565514. The settings on record: literature value; cited from earlier work.
Data set [1] has as its target T1, PPARγ (Homo sapiens, UniProt P37231).
T1 construct: expressed in transfected cells; host or cells: HEK293T
T1 sequence (P37231 238-503 limits assumed): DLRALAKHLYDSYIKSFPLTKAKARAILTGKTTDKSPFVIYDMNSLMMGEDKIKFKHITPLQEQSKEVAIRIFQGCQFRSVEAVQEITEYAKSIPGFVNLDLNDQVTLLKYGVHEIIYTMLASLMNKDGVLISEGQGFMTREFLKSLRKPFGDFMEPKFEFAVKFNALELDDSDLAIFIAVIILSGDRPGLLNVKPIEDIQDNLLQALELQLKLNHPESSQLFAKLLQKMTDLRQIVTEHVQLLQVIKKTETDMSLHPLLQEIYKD
Description: Gal4 hybrid reporter gene assay PPARγ. The format is cell-based. The settings on record: Gal4 hybrid reporter, HEK293T, 12-14 h; mean ± SEM, at least three experiments. The text has this:
(§1) These in vitro test systems are based on a constitutively expressed hybrid receptor composed of the ligand binding domain of the respective human nuclear receptor and the DNA binding domain of the yeast receptor Gal4. A Gal4-inducible firefly luciferase serves as reporter gene and a constitutively expressed renilla luciferase is used for normalization of transfection efficacy and internal toxicity control[18],[19]. […] The Gal4-fusion receptor plasmids pFA-CMV-hPPARα-LBD[50], pFA-CMV-hPPARγ-LBD[50], pFA-CMV-hPPARδ-LBD[50], pFA-CMV-hLXRα-LBD[51], pFA-CMV-hLXRβ-LBD[51], pFA-CMV-hRXRα-LBD[52], pFA-CMV-hRXRβ-LBD[52], pFA-CMV-hRXRγ-LBD[52], pFA-CMV-hRARα-LBD[52], pFA-CMV-hRARβ-LBD[52], pFA-CMV-hRARγ-LBD[52], pFA-CMV-hFXR-LBD[53], pFA-CMV-hVDR-LBD[52], pFA-CMV-hCAR-LBD[52] and pFA-CMV-hPXR-LBD[52] coding for the hinge region and ligand binding domain (LBD) of the canonical isoform of the respective nuclear receptor have been reported previously. pFR-Luc (Stratagene) was used as reporter plasmid and pRL-SV40 (Promega) for normalization of transfection efficiency and cell growth.
(§2) HEK293T cells were grown in DMEM high glucose, supplemented with 10% FCS, sodium pyruvate (1 mM), penicillin (100 U/mL) and streptomycin (100 μg/mL) at 37 °C and 5% CO2. The day before transfection, HEK293T cells were seeded in 96-well plates (3·10^4 cells/well). Before transfection, medium was changed to Opti-MEM without supplements. Transient transfection was carried out using Lipofectamine LTX reagent (Invitrogen) according to the manufacturer’s protocol with pFR-Luc (Stratagene), pRL-SV40 (Promega) and the corresponding Gal4-fusion nuclear receptor plasmid. 5 h after transfection, medium was changed to Opti-MEM supplemented with penicillin (100 U/mL), streptomycin (100 μg/mL), now additionally containing 0.1% DMSO and the respective test compound or 0.1% DMSO alone as untreated control. Each concentration was tested in duplicates and each experiment was repeated independently at least three times. Following overnight (12-14 h) incubation with the test compounds, cells were assayed for luciferase activity using Dual-Glo™ Luciferase Assay System (Promega) according to the manufacturer’s protocol. Luminescence was measured with an Infinite M200 luminometer (Tecan Deutschland GmbH). […] Fold activation was obtained by dividing the mean RLU of a test compound at a respective concentration by the mean RLU of untreated control.

In the next data set the test system is murine PPARγ. The settings on record: read-out: PPARγ (EC50) literature; cited from earlier work.
On the set-up of data set [2]: method as in PMID 18274627. The settings on record: HEK293T cells; cited from earlier work.
A further data set relates to 3T3-L1 mouse fibroblasts. Also noted: method as in PMID 19048458. The settings on record: cited from earlier work.
In data set [3] the test system is PPARγ. The following applies: cited from earlier work.
Data set [4] concerns adiponectin plasma levels. Also noted: method as in PMID 19048458. The settings on record: in men; cited from earlier work.
In data set [5] the test system is PPARα. The settings on record: cited from earlier work.
Data set [6] concerns the target T2, PPARα (Homo sapiens, UniProt Q07869).
T2 construct: expressed in transfected cells; host or cells: HEK293T
T2 sequence (Q07869 239-466 limits assumed): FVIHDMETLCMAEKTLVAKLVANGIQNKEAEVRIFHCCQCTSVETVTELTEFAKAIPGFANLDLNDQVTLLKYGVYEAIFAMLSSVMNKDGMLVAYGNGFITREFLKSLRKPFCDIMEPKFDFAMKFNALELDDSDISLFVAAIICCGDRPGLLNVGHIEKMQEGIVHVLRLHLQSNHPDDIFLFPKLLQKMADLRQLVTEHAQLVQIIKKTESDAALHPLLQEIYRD
As to the kind of experiment: Gal4 hybrid reporter gene assay PPARα. The format is cell-based. The settings on record: Gal4 hybrid reporter, HEK293T, 12-14 h; mean ± SEM, at least three experiments.
Text: as §1, §2
Background: A reporter such as luciferase makes a cellular process visible.

The subject of data set [7] is PPARγ-regulated genes in 3T3-L1 adipocytes. As to the kind of experiment: PPARγ target gene quantification in 3T3-L1 adipocytes (qPCR). The format is cell-based, murine. On the procedure:
3T3-L1 cells were cultured and differentiated as described above. Cells were then lysed using TRIzol reagent (Ambion, Life Technologies, Carlsbad, CA, USA), and mRNA was isolated following the manufacturer’s protocol. DNA contaminations were digested using DNase (DNase I, RNase-free kit; Thermo Scientific, Waltham, MA, USA) and mRNA concentrations were measured with a NanoDrop2000 spectrophotometer (Thermo Scientific, Waltham, MA, USA). Subsequently, reverse transcription was performed using the high capacity RNA-to-cDNA kit (Applied Biosystems, Foster City, CA, USA). Quantitative real-time PCR was performed using specific primers for CD36, […] and CPT1A with a StepOnePlus real-time PCR system (Applied Biosystems, Foster City, CA, USA). Non-POU domain containing octamer binding protein (NonO) was used as reference gene for 3T3-L1. All samples were measured in duplicate and were analyzed using the ΔΔCt method. The following PCR primers were used: Adiponectin: 5′-TGACGACACCAAAAGGGCTC-3′ (fwd) and 5′-CACAAGTTCCCTTGGGTGGA-3′ (rev); CD36: 5′-TGCTGGAGCTGTTATTGGTG-3′ (fwd) and 5′-CATGAGAATGCCTCCAAACA-3′ (rev); FABP4: 5′-AGAAGTGGGAGTGGGCTTTG-3′ (fwd) and 5′-ACTCTCTGACCGGATGGTGA-3′ (rev); GLUT4: 5′-TGAAGAACGGATAGGGAGCAG-3′ (fwd) and 5′-GAAGTGCAAAGGGTGAGTGAG-3′ (rev); NonO: 5′-TGCTCCTGTGCCACCTGGTACTC-3′ (fwd) and 5′-CCGGAGCTGGACGGTTGAATGC-3′ (rev).
Results (expressed as mean ± SEM % relative mRNA expression; n = 3): Adiponectin: untreated (0.1% DMSO): 124 ± 45%; […];
A general note: Real-time PCR tracks product formation cycle by cycle.

The next data set deals with 3T3-L1 adipocytes. As to the kind of experiment: Differentiation of 3T3-L1 adipocytes, Oil Red O staining. The following applies: rosiglitazone 2 μM; lesinurad up to 50 μM. The format is cell-based, murine. On the procedure: For this, 3T3-L1 cells were treated with insulin, dexamethasone and isobutylmethylxanthine (IBMX) to induce their differentiation into mature adipocytes. […] 3T3-L1 cells were subcultured in DMEM containing 10% newborn calf serum in a humidified atmosphere at 37 °C, 5% CO2. Cells were differentiated into adipocytes within 14 days according to the method[54] reported by Zebisch and colleagues. In brief, cells were seeded in 6-well plates ([…]). […] At day 5, medium was changed to contain only insulin for another two days. Cells were then kept for lipid droplet accumulation in basal medium without additions until day 15. […] Differentiation of 3T3-L1 cells to adipocytes was confirmed by Oil Red O staining. For this, cells were washed with PBS and then fixed for 60 min with a formaldehyde solution (4% in PBS). Subsequently, cells were rinsed with 60% isopropanol and incubated with Oil Red O solution (0.3%) for 120 min.

Data set [8] deals with recombinant PPARγ LBD ligand binding domain fused to N-terminal GFP (human). As to the kind of experiment: AlphaScreen or HTRF; homogeneous time-resolved FRET; 12 nM GFP-PPARγ LBD (acceptor) and 12 nM streptavidin-terbium cryptate with biotinylated coactivator peptide (donor); lesinurad at varying concentrations, 1% DMSO; 25 mM HEPES pH 7.5, 150 mM KF, 5% glycerol, 0.1% CHAPS, 5 mM DTT; 2 h at RT; referenced to recruitment with 1 μM rosiglitazone. A general note: Bead proximity is the source of the signal in Alpha formats.
recombinant PPARγ LBD ligand binding domain fused to N-terminal GFP (human), sequence (P37231 whole entry, the tested form may be a part): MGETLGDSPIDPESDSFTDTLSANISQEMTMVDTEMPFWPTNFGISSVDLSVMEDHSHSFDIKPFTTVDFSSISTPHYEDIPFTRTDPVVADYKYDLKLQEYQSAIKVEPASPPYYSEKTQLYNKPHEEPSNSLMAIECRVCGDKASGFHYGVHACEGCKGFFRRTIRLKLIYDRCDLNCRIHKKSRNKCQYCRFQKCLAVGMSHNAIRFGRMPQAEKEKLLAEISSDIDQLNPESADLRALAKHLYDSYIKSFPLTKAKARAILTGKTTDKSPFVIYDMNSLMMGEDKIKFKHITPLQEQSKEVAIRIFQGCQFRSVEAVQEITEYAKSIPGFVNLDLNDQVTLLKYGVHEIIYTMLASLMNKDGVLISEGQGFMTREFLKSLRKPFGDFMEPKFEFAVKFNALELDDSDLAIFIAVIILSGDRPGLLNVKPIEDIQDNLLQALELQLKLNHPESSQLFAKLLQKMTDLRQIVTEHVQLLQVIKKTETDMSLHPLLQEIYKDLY

Entries after “also recorded” stand apart in the source; their conditions may differ. Read-outs that look alike come from different tables or passages of the source. No end group written: not given here. *: point of attachment. Biotin = O=C1N[C@H]2[C@H](CS[C@H]2CCCCC(=O)*)N1

Broadly, the EC50 is the concentration that produces a half-maximal response.

Regarding `CCOP(=O)(OCC)C(=Cc1cc(C(C)(C)C)c(O)c(C(C)(C)C)c1)P(=O)(OCC)OCC` [SR12813], in the data set on PXR, the EC50 is 140 nM.

`CC(=O)NCCOC(=O)[C@H](Oc1cccc(C(F)(F)F)c1)c1ccc(Cl)cc1` [arhalofenate] registered an EC50 at PPARγ [1] of 5400 ± 1100 nM.

In the case of `O=C(O)[C@H](Oc1cccc(C(F)(F)F)c1)c1ccc(Cl)cc1` [arhalofenic acid], the figures for the EC50 on PPARγ [1] and in the data set with murine PPARγ were 470 ± 20 nM and 12000 nM, respectively.

On to `CCc1oc2ccccc2c1C(=O)c1cc(Br)c(O)c(Br)c1` [benzbromarone], for which the “expression of lipoprotein lipase (LPL) and acyl-CoA-synthetase” value in [2] was “induced”. In addition, the “expression of CD36, adiponectin and FABP4 (aP2)” value in the data set with 3T3-L1 mouse fibroblasts is recorded as “significantly induced”. Moreover, the PPARγ literature activity result with PPARγ [3] (no precise activity value reported) was “active[24]***”. In [4], the adiponectin plasma levels result is listed as “enhanced adiponectin plasma levels”.

Turning to `CC(C)(Oc1ccc(C(=O)c2ccc(Cl)cc2)cc1)C(=O)O` [fenofibric acid], the 50% effective concentration (EC50) is […] with PPARα [5] (literature value) and 6500 ± 500 nM at PPARα [6].

Consider `CO[C@H]1/C=C/O[C@@]2(C)Oc3c(C)c(O)c4c(O)c(c(/C=N/N5CCN(C)CC5)c(O)c4c3C2=O)NC(=O)/C(C)=C\C=C\[C@H](C)[C@H](O)[C@@H](C)[C@@H](O)[C@@H](C)[C@H](OC(C)=O)[C@@H]1C` [rifampicin], for which, in the data set on PXR, the EC50 was […].

Take `CN(CCOc1ccc(CC2SC(=O)NC2=O)cc1)c1ccccn1` (centres unmarked) [rosiglitazone]: in data set [7], the “Adiponectin relative mRNA expression” value came to 455 ± 111%, the “CD36 relative mRNA expression” value is 468 ± 8%, the “FABP4 relative mRNA expression” value is 338 ± 46% and the “GLUT4 relative mRNA expression” value was 695 ± 145%. The “lipid accumulation during differentiation (Oil Red O staining)” value in the data set with 3T3-L1 adipocytes was “massive accumulation of lipid droplets; also recorded: massive storage of fat”. Besides, the EC50 in the data set on PPARγ [3] (literature value) is […].

`CCO[C@@H](Cc1ccc(OCCc2ccc(OS(C)(=O)=O)cc2)cc1)C(=O)O` [tesaglitazar]: the EC50 with PPARα [5] (hybrid transactivation assay, 40 hours incubation, read-out: PPARα (EC50) literature) is 1700 nM; on PPARγ [1], 49 ± 5 nM; with murine PPARγ it was 250 nM; at PPARα [6], 99 ± 5 nM.

B1: CBP derived peptide (biotin-…) (peptide)
peptide: Biotin-NLVPDAASKHKQLSELLRGGSGS
As for B1, in data set [8], the % recruitment with lesinurad relative to 1 μM rosiglitazone came out at 59% and the EC50 of lesinurad for induced recruitment was 44000 nM.
